Patent publication US6392055B1, “Synthesis and biological evaluation of analogs of the antimitotic marine natural product curacin A” (The University of Pittsburgh, priority 2000, dated 2002)
Like-named read-outs stand apart in the source and are kept apart here.

How the values were obtained:
MDA-MB231 cells = assay: Growth inhibition of breast carcinoma cells (MTS); format: cell-based, human
PC-3 cells = assay: Growth inhibition of prostate carcinoma cells (MTS); format: cell-based, human
[1] = system: isolated bovine brain tubulin; assay: Inhibition of GTP/glutamate-induced tubulin polymerization (turbidimetric, 30° C.); format: biochemical; conditions: 5 μM compound
[2] = system: tubulin (colchicine site); assay: Inhibition of [3H]colchicine binding to tubulin; parameters: species or system bovine; conditions: for Percent Colchicine Binding Inhibition (CBI), 5 μM / % CBI 5 μM, (30° C.) / % CBI 5 μM, 37° C.: 5 μM compound; for Percent Colchicine Binding Inhibition (CBI), 50 μM / % CBI 50 μM, (30° C.) / % CBI 50 μM, 37° C.: 50 μM compound; for % CBI 5 μM, (30° C.) / % CBI 50 μM, (30° C.): 30° C. (values in parentheses)
Description: Assays to determine whether 15mix-17mix inhibited binding of [^3H]colchicine to tubulin at both 30° C. and 37° C. were performed. This was accomplished using methods described previously. Kang, G.-J.; Getahun, Z.; Muzaffar, A.; Brossi, A.; Hamel, E. J. Biol. Chem. 1990, 265, 10255; Verdier-Pinard, P.; Lai, J.-Y.; Yoo, H.-D.; Yu, J.; Marquez, B.; Nagle, D. G.; Nambu, M.; White, J. D.; Falck, J. R.; Gerwick, W. H.; Day, B. W.; Hamel, E. Mol. Pharmacol. 1998, 53, 62. Briefly, 5 μM [^3H]colchicine (2.3 TBq/mmol), drug (1, 5, 10, 50, or 250 μM), or vehicle (DMSO, 5% v/v) were incubated at 30° C. for 15 minutes or at 37° C. for 10 minutes with 1 μM tubulin in the presence of 1 M monosodium glutamate, 0.1 M glucose-1-phosphate, 1 mM MgCl2, 1 mM GTP, and 0.5 mg/mL bovine serum albumin. The solutions were filtered through two stacks of DEAE-cellulose filters and the radioactivity in the filtrate was determined by scintillation spectrometry. Each series of determinations included positive controls of 1, 5, and/or 50 μM curacin A.

2008 cells = assay: Growth inhibition of ovarian carcinoma cells (MTS); format: cell-based, human
[3] = 96 h, Table II prints no unit, read-out: GI50 MDA 96 h
[4] = read-out: GI50 MDA 48 h, 48 h, Table II prints no unit
[5] = 96 h, Table II prints no unit, read-out: GI50 PC3 96 h
[6] = read-out: GI50 PC3 48 h, 48 h, Table II prints no unit
[7] = 96 h, Table II prints no unit, read-out: GI50 2008 96 h
[8] = read-out: GI50 2008 48 h, 48 h, Table II prints no unit
[9] = 96 h, read-out: GI50 MDA-MB231 (breast) 96 h
[10] = read-out: GI50 MDA-MB231 (breast) 48 h, 48 h
[11] = 96 h, read-out: GI50 PC3 (prostate) 96 h
[12] = read-out: GI50 PC3 (prostate) 48 h, 48 h
[13] = 96 h, read-out: GI50 2008 (ovarian) 96 h
[14] = read-out: GI50 2008 (ovarian) 48 h, 48 h

Row | SMILES | GI50 (MDA-MB231 cells; [3]) [nM] | GI50 (MDA-MB231 cells; [4]) [nM] | GI50 (PC-3 cells; [5]) [nM] | GI50 (PC-3 cells; [6]) [nM] | Percent Tubulin Polymerization Inhibition (TPI), 5 μM [1] [%] | Percent Colchicine Binding Inhibition (CBI), 5 μM [2] [%] | Percent Colchicine Binding Inhibition (CBI), 50 μM [2] [%] | GI50 (2008 cells; [7]) [nM] | GI50 (2008 cells; [8]) [nM] | GI50 (MDA-MB231 cells; [9]) [nM] | GI50 (MDA-MB231 cells; [10]) [nM] | GI50 (PC-3 cells; [11]) [nM] | GI50 (PC-3 cells; [12]) [nM] | % TPI 5 μM [1] [%] | % CBI 5 μM, (30° C.) [2] | % CBI 5 μM, 37° C. [2] [%] | % CBI 50 μM, (30° C.) [2] | % CBI 50 μM, 37° C. [2] [%] | GI50 (2008 cells; [13]) [nM] | GI50 (2008 cells; [14]) [nM]
1 | COc1ccccc1C(O)CC/C(C)=C/C=C/CC/C=C\c1cc(OC)c(OC)c(OC)c1 (stereo not shown) [Compound 19CR5] | 204 ± 46 | 86 ± 146 | 1120 ± 40 | 596 ± 1250 | 74.6 | 12.5 ± 8.1 | 68.7 ± 1.1 | 199 ± 36 | 204 ± 112 | – | – | – | – | – | – | – | – | – | – | –
2 | C=CC[C@@H](CC/C(C)=C/C=C/CC/C=C\c1csc(C(C)(C)C)n1)OC [JRC4] | – | – | – | – | – | – | – | – | – | 250 ± 20 | 320 ± 200 | 450 ± 90 | 240 ± 70 | 100 | (38 ± 2) % | −21 ± 16 | (43 ± 19) % | 5 ± 13 | 250 ± 50 | 300 ± 170
3 | C=CC[C@@H](CC/C(C)=C/C=C/CC/C=C\[C@@H]1CSC(C(C)(C)C)=N1)OC [JRC3] | – | – | – | – | – | – | – | – | – | 270 ± 160 | 200 ± 110 | 61 ± 59 | 130 ± 80 | 100 | (35 ± 4) % | −35 ± 15 | (63 ± 6) % | 13 ± 12 | 180 ± 110 | 220 ± 90
4 | C=CC[C@@H](CC/C(C)=C/C=C/CC/C=C\[C@@H]1COC(C(C)(C)C)=N1)OC [JRC1] | – | – | – | – | – | – | – | – | – | 4100 ± 1100 | 1800 ± 300 | 8800 ± 800 | 6200 ± 1300 | 0 | (14 ± 5) % | 0 ± 7 | (80 ± 1) % | 87 ± 1 | 3700 ± 1500 | 450 ± 500
5 | COc1cc(/C=C\CC/C=C/C=C(\C)CCC(O)c2cc3ccccc3o2)cc(OC)c1OC (stereo not shown) [Compound 19CR3] | 214 ± 51 | 151 ± 51 | 1020 ± 380 | 366 ± 157 | >100 | 9.9 ± 3.0 | 59.0 ± 7.5 | 279 ± 30 | 311 ± 63 | – | – | – | – | – | – | – | – | – | – | –
6 | COc1cc(/C=C\CC/C=C/C=C(\C)CCC(O)c2cccs2)cc(OC)c1OC (stereo not shown) [Compound 19CR2] | 1280 ± 120 | 83 ± 125 | 1220 ± 220 | 875 ± 1020 | >100 | 30.2 ± 7.3 | 71.6 ± 2.8 | 235 ± 21 | 380 ± 2 | – | – | – | – | – | – | – | – | – | – | –
7 | COc1cc(/C=C\CC/C=C/C=C(\C)CCC(O)c2cc3ccccc3s2)cc(OC)c1OC (stereo not shown) [Compound 19CR4] | 221 ± 33 | 243 ± 46 | 634 ± 397 | 933 ± 1250 | >100 | 5.0 ± 7.4 | 73.0 ± 2.4 | 268 ± 46 | 314 ± 25 | – | – | – | – | – | – | – | – | – | – | –
8 | C=CC[C@@H](CC[C@@]1(C)C[C@H]1[C@H]1C[C@@H]1CC/C=C\[C@@H]1COC([C@@H]2C[C@@H]2C)=N1)OC [JRCPOX] | – | – | – | – | – | – | – | – | – | 24000 | 18000 ± 4000 | 24000 ± 1000 | 49000 ± 1000 | 83 | (−142 ± 59) % | −8 ± 11 | (−205 ± 17) % | −74 ± 19 | 23000 ± 1000 | 18000 ± 4000
9 | C=CC[C@@H](CC[C@@]1(C)C[C@H]1[C@H]1C[C@@H]1CC/C=C\[C@@H]1CSC([C@@H]2C[C@@H]2C)=N1)OC [JR DCCA] | – | – | – | – | – | – | – | – | – | > 50000 | > 50000 | > 50000 | > 50000 | 0 | (9 ± 5) % | −39 ± 7 | (−12 ± 9) % | −62 ± 5 | > 50000 | > 50000
